# Experimental data taken from US20220119354A1, “DIAMINO-SUBSTITUTED PYRIDINES AND PYRIMIDINES AS HERBICIDES” (FMC Corporation, priority 2019, published 2022).
# What was measured:
# Format in all cases: in vivo
# [1] = system: foxtail, giant (Setaria faberii); assay: Test A preemergence, giant foxtail; conditions: 0 to 100 scale
# In short: (§1)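 Greenhouse evaluation: treated and untreated pots were held about 10 d, then injury was rated visually from 0 (no effect) to 100 (complete control). Application was preemergence to soil or postemergence to seedlings 2–10 cm tall, using a non-phytotoxic solvent formulation with surfactant.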
# [2] = system: pigweed (Amaranthus retroflexus); assay: Test A preemergence, pigweed; conditions: 0 to 100 scale
# In short: as §1
# kochia (Kochia scoparia) [3] = assay: Test A postemergence, kochia; conditions: 0 to 100 scale
# In short: as §1
# kochia (Kochia scoparia) [4] = assay: Test A preemergence, kochia; conditions: 0 to 100 scale
# In short: as §1
# [5] = system: sedge, umbrella (small-flower umbrella sedge, Cyperus difformis); assay: Test B flooded paddy test, umbrella sedge; conditions: Flood, 250 g ai/ha, applied to paddy water, 2-leaf stage, visual evaluation after 13 to 15 d
# In short: (§2)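 Visual injury scores run from 0 (no effect) to 100 (complete control), assigned by comparison with controls 13 to 15 d after treatment. Treatment went into floodwater standing 3 cm over the soil of pots holding 2-leaf plants.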
# [6] = system: barnyardgrass (Echinochloa crus-galli); assay: Test A postemergence, barnyardgrass; conditions: 0 to 100 scale
# In short: as §1
# rice (Oryza sativa) = assay: Test B flooded paddy test, rice; conditions: Flood, 250 g ai/ha, applied to paddy water, 2-leaf stage, visual evaluation after 13 to 15 d
# In short: as §2
# [7] = system: ragweed (common ragweed, Ambrosia elatior); assay: Test A postemergence, ragweed; conditions: 0 to 100 scale
# In short: as §1
# [8] = system: galium (catchweed bedstraw, Galium aparine); assay: Test A postemergence, galium; conditions: 0 to 100 scale
# In short: as §1
# [9] = system: ducksalad (Heteranthera limosa); assay: Test B flooded paddy test, ducksalad; conditions: Flood, 250 g ai/ha, applied to paddy water, 2-leaf stage, visual evaluation after 13 to 15 d
# In short: as §2
# [10] = system: wheat (Triticum aestivum); assay: Test A postemergence, wheat; conditions: 0 to 100 scale
# In short: as §1
# [11] = system: ragweed (common ragweed, Ambrosia elatior); assay: Test A preemergence, ragweed; conditions: 0 to 100 scale
# In short: as §1
# corn (Zea mays) = assay: Test A postemergence, corn; conditions: 0 to 100 scale
# In short: as §1
# [12] = system: barnyardgrass (Echinochloa crus-galli); assay: Test B flooded paddy test, barnyardgrass; conditions: Flood, 250 g ai/ha, applied to paddy water, 2-leaf stage, visual evaluation after 13 to 15 d
# In short: as §2
# [13] = system: barnyardgrass (Echinochloa crus-galli); assay: Test A preemergence, barnyardgrass; conditions: 0 to 100 scale
# In short: as §1
# [14] = system: pigweed (Amaranthus retroflexus); assay: Test A postemergence, pigweed; conditions: 0 to 100 scale
# In short: as §1
# [15] = system: foxtail, giant (Setaria faberii); assay: Test A postemergence, giant foxtail; conditions: 0 to 100 scale
# In short: as §1
# [16] = system: blackgrass (Alopecurus myosuroides); assay: Test A postemergence, blackgrass; conditions: 0 to 100 scale
# In short: as §1
# [17] = system: ryegrass, Italian (Lolium multiflorum); assay: Test A postemergence, Italian ryegrass; conditions: 0 to 100 scale
# In short: as §1
# [18] = system: ryegrass, Italian (Lolium multiflorum); assay: Test A preemergence, Italian ryegrass; conditions: 0 to 100 scale
# In short: as §1
structure (smiles),measurement,setting,value
C[C@@H](Nc1ncc(C(F)(F)F)c(N)n1)c1cc2cc(C(F)(F)F)ccc2o1 [Compound 7],"Plant response rating, Foxtail, Giant",[1]; 125 g ai/ha,0
same,"Plant response rating, Foxtail, Giant",[1]; 500 g ai/ha,0
same,"Plant response rating, Pigweed",[2]; 125 g ai/ha,0
same,"Plant response rating, Pigweed",[2]; 500 g ai/ha,30
same,"Plant response rating, Kochia",kochia (Kochia scoparia) [3]; 125 g ai/ha,0
same,"Plant response rating, Kochia",kochia (Kochia scoparia) [3]; 500 g ai/ha,0
same,"Plant response rating, Kochia",kochia (Kochia scoparia) [4]; 125 g ai/ha,0
same,"Plant response rating, Kochia",kochia (Kochia scoparia) [4]; 500 g ai/ha,0
same,"Plant response rating, Sedge, Umbrella (0 to 100 scale, 0 is no effect, 100 is complete control)",[5],0
same,"Plant response rating, Barnyardgrass",[6]; 125 g ai/ha,0
same,"Plant response rating, Barnyardgrass",[6]; 500 g ai/ha,0
same,"Plant response rating, Rice (0 to 100 scale, 0 is no effect, 100 is complete control)",rice (Oryza sativa),0
same,"Plant response rating, Ragweed",[7]; 125 g ai/ha,0
same,"Plant response rating, Ragweed",[7]; 500 g ai/ha,0
same,"Plant response rating, Galium",[8]; 125 g ai/ha,0
same,"Plant response rating, Galium",[8]; 500 g ai/ha,20
same,"Plant response rating, Ducksalad (0 to 100 scale, 0 is no effect, 100 is complete control)",[9],0
same,"Plant response rating, Wheat",[10]; 125 g ai/ha,0
same,"Plant response rating, Wheat",[10]; 500 g ai/ha,0
same,"Plant response rating, Ragweed",[11]; 125 g ai/ha,0
same,"Plant response rating, Ragweed",[11]; 500 g ai/ha,0
same,"Plant response rating, Corn",corn (Zea mays); 125 g ai/ha,0
same,"Plant response rating, Corn",corn (Zea mays); 500 g ai/ha,0
same,"Plant response rating, Barnyardgrass (0 to 100 scale, 0 is no effect, 100 is complete control)",[12],0
same,"Plant response rating, Barnyardgrass",[13]; 125 g ai/ha,0
same,"Plant response rating, Barnyardgrass",[13]; 500 g ai/ha,0
same,"Plant response rating, Pigweed",[14]; 125 g ai/ha,30
same,"Plant response rating, Pigweed",[14]; 500 g ai/ha,90
same,"Plant response rating, Foxtail, Giant",[15]; 125 g ai/ha,0
same,"Plant response rating, Foxtail, Giant",[15]; 500 g ai/ha,0
same,"Plant response rating, Blackgrass",[16]; 125 g ai/ha,0
same,"Plant response rating, Blackgrass",[16]; 500 g ai/ha,0
same,"Plant response rating, Ryegrass, Italian",[17]; 125 g ai/ha,0
same,"Plant response rating, Ryegrass, Italian",[17]; 500 g ai/ha,0
same,"Plant response rating, Ryegrass, Italian",[18]; 125 g ai/ha,0
same,"Plant response rating, Ryegrass, Italian",[18]; 500 g ai/ha,0
"C[C@@H](Nc1ncc(C(F)(F)F)c(N)n1)c1cc2ccc(F)cc2o1 [Compound 8, N2-[(1R)-1-(6-fluoro-2-benzofuranyl)ethyl]-5-(trifluoromethyl)-2,4-pyrimidinediamine]","Plant response rating, Foxtail, Giant",[1]; 125 g ai/ha,50
same,"Plant response rating, Foxtail, Giant",[1]; 500 g ai/ha,100
same,"Plant response rating, Pigweed",[2]; 125 g ai/ha,80
same,"Plant response rating, Pigweed",[2]; 500 g ai/ha,100
same,pest or weed control at 125 g/ha,"kochia (Kochia scoparia) [3]; Bassia scoparia, post-emergence, 240 h, 125 g ai/ha, read-out: Plant response rating, Kochia",80%
same,pest or weed control at 500 g/ha,"kochia (Kochia scoparia) [3]; Bassia scoparia, post-emergence, 240 h, 500 g ai/ha, read-out: Plant response rating, Kochia",90%
same,"Plant response rating, Kochia",kochia (Kochia scoparia) [4]; 125 g ai/ha,60
same,"Plant response rating, Kochia",kochia (Kochia scoparia) [4]; 500 g ai/ha,90
same,pest or weed control at 250 g/ha,"[5]; Cyperus difformis, 360 h, read-out: Plant response rating, Sedge, Umbrella (0 to 100 scale, 0 is no effect, 100 is complete control)",100%
same,pest or weed control at 125 g/ha,"[6]; Echinochloa crus-galli, post-emergence, 240 h, 125 g ai/ha, read-out: Plant response rating, Barnyardgrass",50%
same,pest or weed control at 500 g/ha,"[6]; Echinochloa crus-galli, post-emergence, 240 h, 500 g ai/ha, read-out: Plant response rating, Barnyardgrass",90%
same,plant injury at 250 g/ha,"rice (Oryza sativa); Oryza sativa, 360 h, read-out: Plant response rating, Rice (0 to 100 scale, 0 is no effect, 100 is complete control)",40%
same,pest or weed control at 125 g/ha,"[7]; Ambrosia artemisiifolia, post-emergence, 240 h, 125 g ai/ha, read-out: Plant response rating, Ragweed",90%
same,pest or weed control at 500 g/ha,"[7]; Ambrosia artemisiifolia, post-emergence, 240 h, 500 g ai/ha, read-out: Plant response rating, Ragweed",90%
same,pest or weed control at 125 g/ha,"[8]; Galium, post-emergence, 240 h, 125 g ai/ha, read-out: Plant response rating, Galium",70%
same,pest or weed control at 500 g/ha,"[8]; Galium, post-emergence, 240 h, 500 g ai/ha, read-out: Plant response rating, Galium",90%
same,pest or weed control at 250 g/ha,"[9]; Heteranthera limosa, 360 h, read-out: Plant response rating, Ducksalad (0 to 100 scale, 0 is no effect, 100 is complete control)",98%
same,plant injury at 125 g/ha,"[10]; Triticum aestivum, post-emergence, 240 h, 125 g ai/ha, read-out: Plant response rating, Wheat",0%
same,plant injury at 500 g/ha,"[10]; Triticum aestivum, post-emergence, 240 h, 500 g ai/ha, read-out: Plant response rating, Wheat",0%
same,"Plant response rating, Ragweed",[11]; 125 g ai/ha,90
same,"Plant response rating, Ragweed",[11]; 500 g ai/ha,100
same,"Corn plant response rating (crop injury, 0 = no effect, 100 = complete kill) at 125 g/ha","corn (Zea mays); Zea mays, post-emergence, 240 h, 125 g ai/ha",0%
same,"Corn plant response rating (crop injury, 0 = no effect, 100 = complete kill) at 500 g/ha","corn (Zea mays); Zea mays, post-emergence, 240 h, 500 g ai/ha",20%
same,pest or weed control at 250 g/ha,"[12]; Echinochloa crus-galli, 360 h, read-out: Plant response rating, Barnyardgrass (0 to 100 scale, 0 is no effect, 100 is complete control)",0%
same,"Plant response rating, Barnyardgrass",[13]; 125 g ai/ha,0
same,"Plant response rating, Barnyardgrass",[13]; 500 g ai/ha,90
same,pest or weed control at 125 g/ha,"[14]; Amaranthus retroflexus, post-emergence, 240 h, 125 g ai/ha, read-out: Plant response rating, Pigweed",100%
same,pest or weed control at 500 g/ha,"[14]; Amaranthus retroflexus, post-emergence, 240 h, 500 g ai/ha, read-out: Plant response rating, Pigweed",100%
same,pest or weed control at 125 g/ha,"[15]; Setaria faberi, post-emergence, 240 h, 125 g ai/ha, read-out: Plant response rating, Foxtail, Giant",40%
same,pest or weed control at 500 g/ha,"[15]; Setaria faberi, post-emergence, 240 h, 500 g ai/ha, read-out: Plant response rating, Foxtail, Giant",90%
same,pest or weed control at 125 g/ha,"[16]; Alopecurus myosuroides, post-emergence, 240 h, 125 g ai/ha, read-out: Plant response rating, Blackgrass",20%
same,pest or weed control at 500 g/ha,"[16]; Alopecurus myosuroides, post-emergence, 240 h, 500 g ai/ha, read-out: Plant response rating, Blackgrass",60%
same,pest or weed control at 125 g/ha,"[17]; Lolium multiflorum, post-emergence, 240 h, 125 g ai/ha, read-out: Plant response rating, Ryegrass, Italian",0%
same,pest or weed control at 500 g/ha,"[17]; Lolium multiflorum, post-emergence, 240 h, 500 g ai/ha, read-out: Plant response rating, Ryegrass, Italian",0%
same,"Plant response rating, Ryegrass, Italian",[18]; 125 g ai/ha,0
same,"Plant response rating, Ryegrass, Italian",[18]; 500 g ai/ha,0
